Reference: patent US11976046B1, “4-(4,5-bis(4-bromophenyl)-2-(4-methoxyphenyl)-1H-imidazol-1-yl)benzoic acid as an antimicrobial compound” (KING FAISAL UNIVERSITY, priority 2023, dated 2024)

Test system: different microbes
Assay: agar plate disc-diffusion antimicrobial testing
Assay type: cell-based
Conditions: against different microbes; screened against gram-positive Bacillus cereus and Staphylococcus aureus, gram-negative Pseudomonas aeruginosa and Escherichia coli, fungi Aspergillus flavus and Chrysosporium keratinophilum
Protocol: The agar plate disc-diffusion method was applied. Sterilized filter papers (6 mm in diameter) were wetted with 10 μL of a solution of 4-(4,5-bis(4-bromophenyl)-2-(4-methoxyphenyl)-1H-imidazol-1-yl)benzoic acid (V) to be tested, containing 10 mg/mL in DMSO, and the discs were allowed to air dry. The discs were then placed onto the surface of agar plates (nutrient agar for bacteria and Sabouraud's dextrose agar for fungi) seeded with the test organism. Each plate contained 15 mL of the agar medium, previously seeded with 0.2 mL of the broth culture of each organism pregrown for 18 hours. The plates were incubated at 37° C. for 48 hours, and 72 hours for fungi. The inhibition zones was measured in mm. Discs impregnated with DMSO were used as a control, and its inhibition zone was subtracted from the tested compound actual inhibition zone.

In the case of `COc1ccc(-c2nc(-c3ccc(Br)cc3)c(-c3ccc(Br)cc3)n2-c2ccc(C(=O)O)cc2)cc1` [V, 4-(4,5-bis(4-bromophenyl)-2-(4-methoxyphenyl)-1H-imidazol-1-yl)benzoic acid], the antimicrobial activities is reported as “excellent antimicrobial activities”.
